This is an account of results in ChEMBL document CHEMBL3352435, “Multiple fragment docking and linking in primary and secondary pockets of dopamine receptors” (ACS Med Chem Lett, 2014).

Sequence of D(3) dopamine receptor (P35462 whole entry): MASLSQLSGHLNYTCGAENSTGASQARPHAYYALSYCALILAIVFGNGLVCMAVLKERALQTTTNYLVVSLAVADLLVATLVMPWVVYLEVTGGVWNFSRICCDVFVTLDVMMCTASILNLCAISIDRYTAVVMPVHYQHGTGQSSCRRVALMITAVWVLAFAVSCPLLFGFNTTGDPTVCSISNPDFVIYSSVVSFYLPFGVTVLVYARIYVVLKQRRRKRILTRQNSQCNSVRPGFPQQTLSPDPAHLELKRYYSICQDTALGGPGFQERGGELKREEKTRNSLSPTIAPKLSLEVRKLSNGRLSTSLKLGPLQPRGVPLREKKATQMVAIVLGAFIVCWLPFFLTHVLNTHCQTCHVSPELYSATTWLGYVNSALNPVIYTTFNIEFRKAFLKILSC

The species entered for the first test is Homo sapiens. Put plainly: Selectivity index, ratio of Ki for human D2long receptor to Ki for human D3 receptor.
Take `N#Cc1cc(N2CCN(CC[C@H]3CC[C@H](NC(N)=O)CC3)CC2)cc(C(F)(F)F)c1`: the Ratio Ki is 39.
Consider `N#Cc1cc(N2CCN(CC[C@H]3CC[C@H](NS(N)(=O)=O)CC3)CC2)cc(C(F)(F)F)c1`, for which the Ratio Ki was 55.
Turning to `N#Cc1cc(N2CCN(CC[C@H]3CC[C@H](NC(=O)CN)CC3)CC2)cc(C(F)(F)F)c1`, the Ratio Ki came out at 9.

A further test deals with D(2) dopamine receptor (Homo sapiens, UniProt P14416). Put plainly: Displacement of [3H]-raclopride from human D2long receptor expressed in HEK293Galpha15 cells after 120 mins by scintillation counting analysis. It counts as cell-based. (In general: Loss of bound radioactivity is the signal in a displacement assay; it reports binding, not function.)
Sequence of D(2) dopamine receptor (P14416 whole entry): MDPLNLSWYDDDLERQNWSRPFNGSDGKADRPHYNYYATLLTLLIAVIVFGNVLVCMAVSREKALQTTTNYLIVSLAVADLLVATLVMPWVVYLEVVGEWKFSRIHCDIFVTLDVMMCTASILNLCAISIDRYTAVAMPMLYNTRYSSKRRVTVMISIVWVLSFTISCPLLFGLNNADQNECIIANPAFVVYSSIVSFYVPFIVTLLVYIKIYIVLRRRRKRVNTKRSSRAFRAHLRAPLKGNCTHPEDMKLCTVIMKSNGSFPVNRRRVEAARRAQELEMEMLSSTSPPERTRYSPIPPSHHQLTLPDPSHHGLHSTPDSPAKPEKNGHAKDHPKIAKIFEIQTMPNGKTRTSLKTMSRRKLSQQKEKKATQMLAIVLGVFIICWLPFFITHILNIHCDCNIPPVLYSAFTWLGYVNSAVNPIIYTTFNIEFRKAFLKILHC
For orientation: Ki means a dissociation constant, usually derived from enzyme kinetics or from competition with a known ligand. A higher Ki goes with weaker binding. Regarding `N#Cc1cc(N2CCN(CC[C@H]3CC[C@H](NC(N)=O)CC3)CC2)cc(C(F)(F)F)c1`, the inhibitory constant (Ki) is 30 nM.
`N#Cc1cc(N2CCN(CC[C@H]3CC[C@H](NS(N)(=O)=O)CC3)CC2)cc(C(F)(F)F)c1` gave an inhibitory constant (Ki) of 37 nM.
`N#Cc1cc(N2CCN(CC[C@H]3CC[C@H](NC(=O)CN)CC3)CC2)cc(C(F)(F)F)c1` gave a Ki of 5.4 nM.

A further test concerns the target D(3) dopamine receptor (Homo sapiens, UniProt P35462). Put plainly: Displacement of [3H]-raclopride from human D3 receptor expressed in CHO-K1 cells after 120 mins by scintillation counting analysis. Format: cell-based.
Compound `N#Cc1cc(N2CCN(CC[C@H]3CC[C@H](NC(N)=O)CC3)CC2)cc(C(F)(F)F)c1` had a Ki of 0.75 nM. This lies in the sub-nanomolar range.
In turn, `N#Cc1cc(N2CCN(CC[C@H]3CC[C@H](NS(N)(=O)=O)CC3)CC2)cc(C(F)(F)F)c1` showed a Ki of 0.67 nM.
For `N#Cc1cc(N2CCN(CC[C@H]3CC[C@H](NC(=O)CN)CC3)CC2)cc(C(F)(F)F)c1`, the affinity corresponds to a Ki of 0.62 nM.
